“Also recorded” adds a separate entry of the source. Like-named read-outs stand apart in the source and are kept apart here.
What was measured:
[1] = target: IKZF1(ZF2)-CRBN/DDB1 (Homo sapiens, UniProt Q96SW2); test: AlphaScreen assay, IKZF1; assay type: biochemical; details: dose response up to highest concentration
[2] = more potent than lenalidomide; cited from earlier work
[3] = test system: MV4-11, MHH-CALL-4, HD-MB03, MB002 and MB004 cells; assay type: cell-based, human
[4] = test system: CRBN knockout MV4-11 cells; test: Cell viability, wild-type vs CRBN knockout MV4-11 cells; assay type: cell-based, human; details: 3 days
[5] = Liver microsomes stability assay, mouse; assay type: in vitro ADME; details: CD-1, mouse, pH 7.4
[6] = target: T1, IKZF1 (Homo sapiens, UniProt Q13422); details: for IKZF1 protein levels in GSPT1(G575N) mutant cell line (in words): MV4-11 GSPT1(G575N)-FLAG cells, 24 h; for IKZF1 degradation after 4 h (in words): MV4-11 cells, any concentration tested
[7] = test system: MV4-11 cells stably expressing GSPT1(G575N)-FLAG; assay type: cell-based, human
[8] = test system: MV4-11 cells; test: TMT quantitative proteomics in MV4-11 cells; assay type: cell-based, human; details: 1 μM, 4 h
[9] = target: GSPT1(G575N) (Homo sapiens, UniProt P15170, G437N); assay type: cell-based
[10] = Liver microsomes stability assay, human; assay type: in vitro ADME; details: pooled liver microsomes, pH 7.4
[11] = test system: MB002 cells; test: Cell viability; assay type: cell-based; details: Homo sapiens, MB002, 72 h, read-out: EC50 (nM) MB002
[12] = test system: caspase 3/7; test: Caspase-Glo 3/7 activity assay in MV4-11 cells; assay type: cell-based, human; details: MV4-11, 10 and 100 nM; timepoints 4, 8 and 24 h
[13] = test system: MV4-11 cells; test: Cell viability; assay type: cell-based, human; details: for activity in cells (in words): cellular assays of Table 2; for EC50: Homo sapiens
[14] = test system: MV4-11 cells; test: Lenalidomide competition assay, MV4-11 viability; assay type: cell-based, human; details: MV4-11, co-treatment with 10 μM lenalidomide, 3 days
[15] = target: T1, IKZF1; test: Immunoblot, IKZF1 degradation in MHH-CALL-4 cells; assay type: cell-based; details: any concentration tested
[16] = target: GSPT1 (Homo sapiens, UniProt P15170+Q96SW2); test: Immunoblot, GSPT1 degradation in MV4-11 cells; assay type: cell-based; details: MV4-11, 4 h
[17] = target: hGSPT1-HiBit (Homo sapiens, UniProt P15170+Q96SW2); test: hGSPT1 HiBiT assay in HEK293 cells; assay type: cell-based; details: SAR discussion of Table 2
hGSPT1-HiBit, sequence (P15170 1-637 isoform P15170-3): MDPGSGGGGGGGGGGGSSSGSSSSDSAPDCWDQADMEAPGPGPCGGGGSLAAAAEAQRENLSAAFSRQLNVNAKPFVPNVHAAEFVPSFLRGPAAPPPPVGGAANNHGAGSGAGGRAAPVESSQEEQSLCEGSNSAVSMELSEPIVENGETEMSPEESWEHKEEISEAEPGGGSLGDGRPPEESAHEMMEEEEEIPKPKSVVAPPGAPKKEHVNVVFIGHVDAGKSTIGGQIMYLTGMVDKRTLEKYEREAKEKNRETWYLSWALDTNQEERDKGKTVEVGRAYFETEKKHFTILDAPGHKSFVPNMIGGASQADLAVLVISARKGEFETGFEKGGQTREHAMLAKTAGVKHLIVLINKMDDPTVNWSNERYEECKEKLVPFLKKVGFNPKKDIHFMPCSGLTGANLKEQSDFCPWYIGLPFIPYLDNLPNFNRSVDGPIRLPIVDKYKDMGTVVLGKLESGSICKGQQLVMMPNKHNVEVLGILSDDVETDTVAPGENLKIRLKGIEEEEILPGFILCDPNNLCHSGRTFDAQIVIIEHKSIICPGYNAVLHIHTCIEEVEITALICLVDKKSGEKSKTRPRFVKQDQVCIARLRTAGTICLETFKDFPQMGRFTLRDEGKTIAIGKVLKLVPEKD
hGSPT1-HiBit, sequence (Q96SW2 whole entry): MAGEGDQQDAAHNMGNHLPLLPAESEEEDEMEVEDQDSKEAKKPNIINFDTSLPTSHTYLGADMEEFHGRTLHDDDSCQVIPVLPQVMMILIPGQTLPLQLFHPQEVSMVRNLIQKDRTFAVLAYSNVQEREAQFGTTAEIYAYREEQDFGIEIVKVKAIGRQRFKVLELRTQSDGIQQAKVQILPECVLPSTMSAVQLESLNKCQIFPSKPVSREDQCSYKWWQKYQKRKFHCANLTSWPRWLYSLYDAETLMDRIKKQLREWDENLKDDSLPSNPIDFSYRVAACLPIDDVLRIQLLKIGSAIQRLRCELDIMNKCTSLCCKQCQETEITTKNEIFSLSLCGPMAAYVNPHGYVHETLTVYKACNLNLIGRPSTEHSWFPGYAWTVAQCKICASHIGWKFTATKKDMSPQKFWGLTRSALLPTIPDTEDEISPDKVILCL
hGSPT1-HiBit, sequence (Q16531 whole entry partner): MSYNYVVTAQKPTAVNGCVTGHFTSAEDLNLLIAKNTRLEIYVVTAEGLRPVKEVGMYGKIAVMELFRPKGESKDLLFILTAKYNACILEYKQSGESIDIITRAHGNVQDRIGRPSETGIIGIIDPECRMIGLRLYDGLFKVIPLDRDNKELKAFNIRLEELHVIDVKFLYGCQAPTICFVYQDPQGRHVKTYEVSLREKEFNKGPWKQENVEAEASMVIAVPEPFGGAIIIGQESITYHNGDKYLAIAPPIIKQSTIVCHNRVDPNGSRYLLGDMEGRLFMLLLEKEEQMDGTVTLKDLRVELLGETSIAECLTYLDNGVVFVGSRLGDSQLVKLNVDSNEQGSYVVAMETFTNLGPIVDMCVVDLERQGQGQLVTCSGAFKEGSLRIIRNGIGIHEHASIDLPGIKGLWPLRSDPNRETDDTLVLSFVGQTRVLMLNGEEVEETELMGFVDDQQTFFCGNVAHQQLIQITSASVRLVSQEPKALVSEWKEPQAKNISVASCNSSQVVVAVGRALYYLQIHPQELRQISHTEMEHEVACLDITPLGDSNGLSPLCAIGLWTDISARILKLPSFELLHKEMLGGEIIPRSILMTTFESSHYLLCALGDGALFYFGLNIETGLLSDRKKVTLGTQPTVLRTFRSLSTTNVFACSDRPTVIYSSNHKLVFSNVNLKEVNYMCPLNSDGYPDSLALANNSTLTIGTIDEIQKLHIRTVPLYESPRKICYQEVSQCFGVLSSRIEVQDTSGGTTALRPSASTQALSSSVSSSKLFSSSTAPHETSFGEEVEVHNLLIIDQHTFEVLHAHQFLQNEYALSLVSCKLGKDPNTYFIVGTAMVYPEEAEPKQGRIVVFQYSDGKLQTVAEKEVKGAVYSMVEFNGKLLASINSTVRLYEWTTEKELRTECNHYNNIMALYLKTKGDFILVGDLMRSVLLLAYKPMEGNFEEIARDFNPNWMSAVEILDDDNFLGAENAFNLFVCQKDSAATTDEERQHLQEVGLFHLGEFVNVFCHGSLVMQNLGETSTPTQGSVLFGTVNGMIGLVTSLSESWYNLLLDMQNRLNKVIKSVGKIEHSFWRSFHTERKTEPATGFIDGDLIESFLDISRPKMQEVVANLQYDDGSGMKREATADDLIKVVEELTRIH

T1 sequence (Q96SW2 whole entry partner): as the sequence (Q96SW2 whole entry) above
T1 sequence (Q16531 whole entry partner): as the sequence (Q16531 whole entry partner) above
T1 sequence (Q13422 whole entry): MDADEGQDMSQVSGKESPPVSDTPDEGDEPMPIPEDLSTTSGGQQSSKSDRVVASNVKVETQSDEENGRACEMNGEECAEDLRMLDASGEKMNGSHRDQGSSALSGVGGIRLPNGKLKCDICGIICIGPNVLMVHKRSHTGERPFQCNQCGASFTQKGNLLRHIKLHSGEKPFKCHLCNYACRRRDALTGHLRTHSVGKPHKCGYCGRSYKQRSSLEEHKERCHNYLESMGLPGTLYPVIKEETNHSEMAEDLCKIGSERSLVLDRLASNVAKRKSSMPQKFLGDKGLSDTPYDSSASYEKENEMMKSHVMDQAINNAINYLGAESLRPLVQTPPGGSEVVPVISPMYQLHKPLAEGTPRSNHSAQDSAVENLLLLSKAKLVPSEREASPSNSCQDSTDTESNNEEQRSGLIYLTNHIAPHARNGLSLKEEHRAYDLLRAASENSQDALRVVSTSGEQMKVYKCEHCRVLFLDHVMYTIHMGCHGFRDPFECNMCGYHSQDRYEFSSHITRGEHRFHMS
IKZF1(ZF2)-CRBN/DDB1, sequence (Q96SW2 40-442 limits assumed): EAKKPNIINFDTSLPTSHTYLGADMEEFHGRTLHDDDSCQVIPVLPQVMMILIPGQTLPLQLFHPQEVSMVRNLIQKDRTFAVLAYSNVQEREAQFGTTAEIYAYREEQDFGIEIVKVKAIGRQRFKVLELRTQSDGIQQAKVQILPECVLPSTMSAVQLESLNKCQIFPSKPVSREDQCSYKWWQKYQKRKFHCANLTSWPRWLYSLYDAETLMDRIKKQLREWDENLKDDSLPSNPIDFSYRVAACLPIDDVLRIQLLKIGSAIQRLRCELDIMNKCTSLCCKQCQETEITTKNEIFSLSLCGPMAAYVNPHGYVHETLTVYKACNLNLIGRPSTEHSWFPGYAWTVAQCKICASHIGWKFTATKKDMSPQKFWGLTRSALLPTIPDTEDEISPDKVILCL
IKZF1(ZF2)-CRBN/DDB1, sequence (Q16531 whole entry partner): as the sequence (Q16531 whole entry partner) above
GSPT1(G575N), sequence (Q96SW2 whole entry partner): as the sequence (Q96SW2 whole entry) above
GSPT1(G575N), sequence (Q16531 whole entry partner): as the sequence (Q16531 whole entry partner) above
GSPT1(G575N), sequence (P15170 1-637 isoform P15170-3 G575N): as the sequence (P15170 1-637 isoform P15170-3) above, with G575N counted along it
GSPT1, sequence (P15170 1-637 isoform P15170-3): as the sequence (P15170 1-637 isoform P15170-3) above
GSPT1, sequence (Q96SW2 whole entry): as the sequence (Q96SW2 whole entry) above
GSPT1, sequence (Q16531 whole entry partner): as the sequence (Q16531 whole entry partner) above

For `O=C1CC[C@H](N2Cc3c(OCc4ccc(CN5CCOCC5)cc4)cccc3C2=O)C(=O)N1` [CC-220, reference compound], the “IKZF1(ZF2)-CRBN/DDB1 complex formation, AlphaScreen signal (in words)” value (shortened to “IKZF1(ZF2)-CRBN/DDB1 complex formation”) [1] is given as “strong dose response; also recorded: dose-dependent AlphaScreen signal” and the “potency in cells relative to lenalidomide” value [2] is given as 10 fold.
For `Cc1ccc(NC(=O)NCc2ccc3c(c2)CN(C2CCC(=O)NC2=O)C3=O)cc1Cl` (stereo not shown) [CC-885], the “antiproliferative effect across the five cell lines (in words)” value [3] was “displayed antiproliferative effects in all five cell lines”.
In the case of `O=C1CCC(N2C(=O)c3ccc(NS(=O)(=O)c4ccccc4OC(F)(F)F)cc3C2=O)C(=O)N1` (stereo not shown) [compound 6, N-(2-(2,6-Dioxopiperidin-3-yl)-1,3-dioxoisoindolin-5-yl)-2-(trifluoromethoxy)benzenesulfonamide], the “antiproliferative activity in the absence of CRBN (in words)” value [4] is reported as “abolished”, the CLint scaled at 4 h, 10 µM [5] is reported as 12 mL/min/kg and the “IKZF1(ZF2)-CRBN/DDB1 complex formation” value [1] is reported as “neither 6 nor 7 showed a signal; also recorded: showed no effect even at the highest concentration”. The “IKZF1 protein levels in GSPT1(G575N) mutant cell line (in words)” value [6] was “unaffected”, the “IKZF1 degradation after 4 h (in words)” value [6] was “did not significantly degrade IKZF1” and the “antiproliferation effect in cells expressing GSPT1(G575N) (in words)” value [7] was “completely abrogated”. For the same compound, the “abundance of CNTNAP4 and SERPINF1 (in words)” value [8] was “less pronounced but statistically significant reductions”, the “abundance of IMiD neosubstrates IKZF1/3 and CK1α (in words)” value [8] was “not affected” and the “proteins most reduced in abundance (in words)” value ([8]; 8927 quantified proteins) was “reduced most potently and selectively abundance of GSPT1 and GSPT2”. For the same compound, the “antiproliferative effect across the five cell lines (in words)” value [3] was “demonstrated antiproliferative activities across the panel”, the “degradation of GSPT1(G575N) mutant (in words)” value [9] was “not degraded” and the CLint scaled at 4 h, 10 µM [10] was 4 mL/min/kg. The EC50 [11] was 726 nM, the “timepoint at which caspase activation was observed” value [12] was 8 h and the “activity in cells (in words)” value [13] was “most potent compound in the series”. For the same compound, the “antiproliferative effect in the presence of lenalidomide (in words)” value [14] was “abrogating the antiproliferative effects” and the “IKZF1 degradation after 4 h (in words)” value [15] was “did not significantly degrade IKZF1”.
With `Cc1c(Cl)cccc1S(=O)(=O)Nc1ccc2c(c1)C(=O)N(C1CCC(=O)NC1=O)C2=O` (stereo not shown) [compound 7, 3-Chloro-N-(2-(2,6-dioxopiperidin-3-yl)-1,3-dioxoisoindolin-5-yl)-2-methylbenzenesulfonamide] the “antiproliferative activity in the absence of CRBN (in words)” value [4] was “abolished”, the “IKZF1(ZF2)-CRBN/DDB1 complex formation” value [1] was “neither 6 nor 7 showed a signal; also recorded: showed no effect even at the highest concentration” and the “IKZF1 protein levels in GSPT1(G575N) mutant cell line (in words)” value [6] was “unaffected”. For the same compound, the “IKZF1 degradation after 4 h (in words)” value [6] was “did not significantly degrade IKZF1”, the “antiproliferation effect in cells expressing GSPT1(G575N) (in words)” value [7] was “completely abrogated” and the “antiproliferative effect across the five cell lines (in words)” value [3] was “demonstrated antiproliferative activities across the panel”. For the same compound, the “degradation of GSPT1(G575N) mutant (in words)” value [9] was “not degraded”, the EC50 [11] was 5010 nM and the “timepoint at which caspase activation was observed” value [12] was 24 h. The EC50 ([13]; MV4-11, 72 h, read-out: EC50 (nM) MV4-11) was 52 nM, the EC50 ([13]; MV4-11, read-out: MV4-11 EC50 (μM)) was 52 nM and the “antiproliferative effect in the presence of lenalidomide (in words)” value [14] was “abrogating the antiproliferative effects”. The “IKZF1 degradation after 4 h (in words)” value [15] was “did not significantly degrade IKZF1”.
For `O=C1CCC(N2C(=O)c3ccc(NS(=O)(=O)c4ccccc4)cc3C2=O)C(=O)N1` (stereo not shown) [compound 8, N-(2-(2,6-Dioxopiperidin-3-yl)-1,3-dioxoisoindolin-5-yl)benzenesulfonamide], the “activity in cells (in words)” value [13] was “inactive”.
For `Cc1ccc(S(=O)(=O)Nc2ccc3c(c2)C(=O)N(C2CCC(=O)NC2=O)C3=O)cc1Cl` (stereo not shown) [compound 9, 3-Chloro-N-(2-(2,6-dioxopiperidin-3-yl)-1,3-dioxoisoindolin-5-yl)-4-methylbenzenesulfonamide], the “activity in cells (in words)” value [13] was “no effect in cellular assays”.
With `O=C1CCC(N2C(=O)c3ccc(NS(=O)(=O)c4cccc(OC(F)(F)F)c4)cc3C2=O)C(=O)N1` (stereo not shown) [compound 10, N-(2-(2,6-Dioxopiperidin-3-yl)-1,3-dioxoisoindolin-5-yl)-3-(trifluoromethoxy)benzenesulfonamide] the “effect on IKZF1 protein level (in words)” value ([6]; immunoblot, MV4-11, 4 h) was “no effects on the protein levels”, the “activity in cells (in words)” value [13] was “no activity in cells” and the “effect on GSPT1 protein level (in words)” value [16] was “no effects on the protein levels”.
In the case of `O=C1CCC(N2C(=O)c3ccc(NS(=O)(=O)c4ccc(OC(F)(F)F)cc4)cc3C2=O)C(=O)N1` (stereo not shown) [compound 11, N-(2-(2,6-Dioxopiperidin-3-yl)-1,3-dioxoisoindolin-5-yl)-4-(trifluoromethoxy)benzenesulfonamide], the “activity in cells (in words)” value [13] is reported as “no activity in cells”.
With `COc1ccccc1S(=O)(=O)Nc1ccc2c(c1)C(=O)N(C1CCC(=O)NC1=O)C2=O` (stereo not shown) [compound 12, N-(2-(2,6-Dioxopiperidin-3-yl)-1,3-dioxoisoindolin-5-yl)-2-methoxybenzenesulfonamide] the “activity in cells (in words)” value [13] was “inactive in cells”.
In the case of `Cc1ccccc1S(=O)(=O)Nc1ccc2c(c1)C(=O)N(C1CCC(=O)NC1=O)C2=O` (stereo not shown) [compound 13, N-(2-(2,6-Dioxopiperidin-3-yl)-1,3-dioxoisoindolin-5-yl)-2-methylbenzenesulfonamide], the “activity in cells (in words)” value [13] is reported as “lack of potent cell activity”.
In the case of `O=C1CCC(N2C(=O)c3ccc(NS(=O)(=O)c4ccccc4C(F)(F)F)cc3C2=O)C(=O)N1` (stereo not shown) [compound 14, N-(2-(2,6-Dioxopiperidin-3-yl)-1,3-dioxoisoindolin-5-yl)-2-(trifluoromethyl)benzenesulfonamide], the “GSPT1 degradation (in words)” value [17] is reported as “potent degrader of GSPT1”.
In the case of `O=C1CCC(N2C(=O)c3ccc(NS(=O)(=O)c4cccc(Cl)c4)cc3C2=O)C(=O)N1` (stereo not shown) [compound 15, 3-Chloro-N-(2-(2,6-dioxopiperidin-3-yl)-1,3-dioxoisoindolin-5-yl)benzenesulfonamide], the “activity in cells (in words)” value [13] is reported as “lack of potent cell activity”.
For `Nc1cccc2c1CN(C1CCC(=O)NC1=O)C2=O` (stereo not shown) [lenalidomide], the “antiproliferative effect across the five cell lines (in words)” value [3] was “insensitive”.
In the case of `Nc1cccc2c1C(=O)N(C1CCC(=O)NC1=O)C2=O` (stereo not shown) [pomalidomide], the “antiproliferative effect across the five cell lines (in words)” value [3] is reported as “insensitive”.
With `O=C1CCC(N2C(=O)c3ccccc3C2=O)C(=O)N1` (stereo not shown) [thalidomide] the “antiproliferative effect across the five cell lines (in words)” value [3] was “insensitive”.
